This note sets out measurements from patent US20260256925A1, “INDAZOLE DERIVATIVES AS ESTROGEN RECEPTOR DEGRADERS” (REGENTS OF THE UNIVERSITY OF MICHIGAN, priority 2022, published 2026).

Assay [1] addresses T1, ER (Homo sapiens, UniProt P03372).
T1 construct: endogenous in cells; probably T47D or MCF-7
T1 sequence (P03372 1-595): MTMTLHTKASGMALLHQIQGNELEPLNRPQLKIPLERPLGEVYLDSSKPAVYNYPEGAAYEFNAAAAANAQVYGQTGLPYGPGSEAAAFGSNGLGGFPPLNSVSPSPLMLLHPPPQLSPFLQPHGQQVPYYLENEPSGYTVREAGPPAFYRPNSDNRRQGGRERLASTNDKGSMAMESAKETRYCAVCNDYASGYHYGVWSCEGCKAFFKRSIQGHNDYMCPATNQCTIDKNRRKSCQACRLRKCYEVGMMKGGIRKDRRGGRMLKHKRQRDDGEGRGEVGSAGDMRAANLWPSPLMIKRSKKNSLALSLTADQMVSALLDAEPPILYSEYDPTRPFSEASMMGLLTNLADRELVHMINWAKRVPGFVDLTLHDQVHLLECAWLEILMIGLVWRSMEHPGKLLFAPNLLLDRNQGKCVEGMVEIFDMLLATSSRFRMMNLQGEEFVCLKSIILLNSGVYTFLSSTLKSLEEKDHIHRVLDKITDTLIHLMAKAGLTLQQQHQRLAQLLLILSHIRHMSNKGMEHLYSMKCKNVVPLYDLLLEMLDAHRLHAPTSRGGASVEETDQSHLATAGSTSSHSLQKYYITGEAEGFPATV
Kind of assay: In-cell Western (ICW) ER degradation assay in T47D cells. The class given is cell-based. The note with it: T47D cells, 16 hrs; for Dmax: T47D, read-out: ER T47D ICW Dmax (%). On the procedure: (§1) ERa degradative activity of compounds can be assessed in MCF-7 and T47D Cells. MCF-7 and T47D cell are seeded and are subsequently treated with the compounds at certain concentrations (e.g., 0.02 to 300 nM). DMSO can be used as vehicle control. Cells are fixed and are blocked with Intercept (PBS) Blocking Buffer (e.g., Li—COR, Odyssey Blocking Buffer), and are stained with ER (e.g., 1:500, Cell signaling) primary antibody for overnight at cold room. Secondary Antibody (e.g., IRDye 800CW Goat anti-Rabbit IgG) and CellTag 700 Stain are added in Intercept (PBS) Blocking Buffer. Finally, cell plate is placed in incubator to dry. Image and signal are captured on Odyssey® DLx Imaging System.
(§2) In-cell Western (ICW) assays in MCF-7 and T47D cell lines.
(§3) Procedures for ICW assays
(§4) In vitro Assay: MCF-7 and T47D ICW assay
(§5) Day 3: After 16 hrs of compounds treatment, cells were fixed by 4% PFA and permeabilized with elution buffer (0.1% Triton X-100 in 1% PBS Solution). Subsequently, cells were blocked with Intercept (PBS) Blocking Buffer (Li—COR, Odyssey Blocking Buffer), and were stained with ER (1:500, Cell signaling) primary antibody for overnight at cold room.
(§6) Day 4: Remove the buffer, add IRDye 800CW Goat anti-Rabbit IgG Secondary Antibody (1:2000) and CellTag 700 Stain (1:500) in Intercept (PBS) Blocking Buffer. Finally, cell plate is placed in incubator to dry. Image and signal were captured on Odyssey® DLx Imaging System.

For assay [2], the target named is T1, ER. Kind of assay: In-cell Western (ICW) ER degradation assay in MCF-7 cells. Type of assay: cell-based. The note with it: for DC50: read-out: ER MCF7 ICW DC50. On the procedure: as §1, §2, §3, §4, §5, §6
The target of another assay is T2, ERα_LBD (GST) (Homo sapiens, UniProt P03372).
T2 construct: ERα_LBD (GST) protein: 4 nM; purchased ThermoFisher A15887
T2 sequence (P03372 311-547 limits assumed): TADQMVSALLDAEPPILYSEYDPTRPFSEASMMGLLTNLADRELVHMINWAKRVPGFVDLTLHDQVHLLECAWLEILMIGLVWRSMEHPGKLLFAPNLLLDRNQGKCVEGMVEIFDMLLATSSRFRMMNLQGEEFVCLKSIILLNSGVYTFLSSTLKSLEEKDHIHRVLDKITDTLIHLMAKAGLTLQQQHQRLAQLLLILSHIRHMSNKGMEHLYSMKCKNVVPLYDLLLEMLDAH
In words: IC50 measurements for binding to ERα_LBD (GST), LanthaScreen TR-FRET ERα competitive binding assay. The note with it: Fluormone ES2 Green tracer, 60 min, read-out: ERα HTRF IC50. How it is done: In vitro Assay: IC50 Measurements for binding to ERα_LBD (GST)·
Final assay conditions: • 1. ERα_LBD (GST) protein: 4 nM • 2. Tb Anti-GST: 2 nM • 3. Fluormone ES2 Green tracer: 3 nM • 4. Incubation time: 60 min • 5. DMSO: 1% • 6. Assay buffer: Adding 1M DTT to Nuclear receptor Buffer K for final 5 mM DTT. • 7. ZPE: 1% DMSO • 8. HPE: 1 μM ARV_471 • 9. LanthaScreen® TR-FRET ERα Competitive Binding Assay (ThermoFisher, #A^15887)
100× Compound preparation: • 1) Cherry pick 2 μL 10 mM compound stock to column 1 of a 384 intermediate plate • 2) Add 18 μL DMSO to column 1 to dilute compound to 1 mM. • 3) Transfer 10 μL 1 mM compound to column 1 of a LDV plate. • 2) Add 6 μl DMSO to column 2-10 of the LDV plate. • 3) Compounds undergo 3-fold serial dilution (3 μL+6 μL) in DMSO. • 4) Transfer 120 nL compound solution to assay plate.
Prepare complete nuclear receptor buffer K by adding 1 M DTT to nuclear receptor buffer K for a final concentration of 5 mM DTT. Complete nuclear receptor buffer K must be prepared fresh daily. Prepare 2× protein solution using complete nuclear receptor buffer K containing 8 nM ERα_LBD (GST) and 4 nM Tb Anti-GST. Then, prepare 2× Fluormone ES2 Green tracer (6 nM) using complete nuclear receptor buffer K. Add 6 μL 2× Fluormone ES2 green tracer into a compound plate (PerkinElmer 6008289) by dragonfly with one-tips-addition. Subsequently, add 6 μL 2× protein solution into the plate. Briefly and gently mix the 384-well plate on a plate shaker and incubate at room temperature protected from light for 60 min. The plate is sealed with a cover to minimize evaporation. Read the plate at wavelengths of 520 nm and 495 nm. Calculate the TR-FRET ratio by dividing the emission signal at 520 nm by the emission signal at 495 nm. Generate a binding curve by plotting the emission ratio vs. the log [ligand]. To determine the IC50 value, fit the data using XL-fit for a sigmoidal dose-response.

For the next assay, the target named is T3, CRBN/DDB1 (Homo sapiens, UniProt Q96SW2).
T3 construct: purchased Wuxi RP210521GA
T3 sequence (Q96SW2 whole entry): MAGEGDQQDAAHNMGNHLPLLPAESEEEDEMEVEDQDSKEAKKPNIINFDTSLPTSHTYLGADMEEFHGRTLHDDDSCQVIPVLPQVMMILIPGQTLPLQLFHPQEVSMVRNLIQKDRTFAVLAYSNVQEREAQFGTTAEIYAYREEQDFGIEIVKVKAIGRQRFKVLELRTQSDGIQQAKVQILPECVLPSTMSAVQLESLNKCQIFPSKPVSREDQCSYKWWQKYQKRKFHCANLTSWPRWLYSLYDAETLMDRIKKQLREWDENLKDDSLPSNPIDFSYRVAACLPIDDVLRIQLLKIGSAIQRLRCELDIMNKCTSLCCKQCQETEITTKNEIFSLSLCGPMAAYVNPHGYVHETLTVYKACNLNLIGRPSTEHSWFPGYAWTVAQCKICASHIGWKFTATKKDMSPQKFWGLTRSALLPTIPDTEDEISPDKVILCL
T3 sequence (Q16531 whole entry partner): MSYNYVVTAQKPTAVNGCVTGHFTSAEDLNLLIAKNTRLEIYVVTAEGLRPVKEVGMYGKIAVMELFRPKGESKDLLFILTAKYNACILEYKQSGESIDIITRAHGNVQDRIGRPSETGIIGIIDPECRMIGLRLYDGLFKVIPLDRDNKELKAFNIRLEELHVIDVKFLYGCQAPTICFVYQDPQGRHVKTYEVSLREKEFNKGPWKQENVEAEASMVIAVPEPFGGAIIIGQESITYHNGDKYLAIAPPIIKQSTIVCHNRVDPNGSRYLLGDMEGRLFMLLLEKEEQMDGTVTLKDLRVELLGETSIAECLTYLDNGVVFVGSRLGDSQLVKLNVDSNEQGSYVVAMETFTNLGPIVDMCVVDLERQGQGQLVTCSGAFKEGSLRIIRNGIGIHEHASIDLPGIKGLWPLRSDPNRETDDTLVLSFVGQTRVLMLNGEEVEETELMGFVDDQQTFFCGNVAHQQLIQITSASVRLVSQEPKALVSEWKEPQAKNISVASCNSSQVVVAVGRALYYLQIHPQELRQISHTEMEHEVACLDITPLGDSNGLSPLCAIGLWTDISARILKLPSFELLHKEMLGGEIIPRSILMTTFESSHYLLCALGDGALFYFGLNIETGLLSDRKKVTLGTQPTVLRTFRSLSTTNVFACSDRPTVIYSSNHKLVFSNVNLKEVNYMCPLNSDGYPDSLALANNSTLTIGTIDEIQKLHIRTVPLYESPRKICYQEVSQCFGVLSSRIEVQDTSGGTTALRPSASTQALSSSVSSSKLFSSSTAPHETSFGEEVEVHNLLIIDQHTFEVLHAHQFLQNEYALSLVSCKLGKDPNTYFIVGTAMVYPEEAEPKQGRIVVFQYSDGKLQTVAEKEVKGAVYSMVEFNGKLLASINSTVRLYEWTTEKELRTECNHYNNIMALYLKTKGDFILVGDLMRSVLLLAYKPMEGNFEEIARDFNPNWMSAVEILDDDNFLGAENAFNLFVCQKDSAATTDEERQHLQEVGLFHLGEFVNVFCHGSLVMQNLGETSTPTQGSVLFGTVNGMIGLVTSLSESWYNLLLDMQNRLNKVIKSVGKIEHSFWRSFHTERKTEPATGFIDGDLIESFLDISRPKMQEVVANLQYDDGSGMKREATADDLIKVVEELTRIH
The class given is binding. The note with it: HTRF, Cy5-labeled Thalidomide probe. How it is done:
The binding potency was determined using HTRF assay technology (Perkin Elmer). Compounds were serially diluted in DMSO and 0.2 μL volume was transferred to white 384-well plate.

[3] abbreviates: MCF7, read-out: ER MCF7 ICW Dmax (%).

pIC50: −log10 of the molar value.

Consider `COc1cc(N2CCC(CN3CCN4c5ccc6c(c5OCC4C3)CN(C3CCC(=O)NC3=O)C6=O)CC2)ccc1C1c2ccc3[nH]ncc3c2CC(C)N1CC(F)F` (stereo in doubt) [Compound A8, (R)-3-((S)-7-((1-(4-((6R,8S)-7-(2,2-difluoroethyl)-8-methyl-6,7,8,9-tetrahydro-3H-pyrazolo[4,3-f]isoquinolin-6-yl)-3-methoxyphenyl)piperidin-4-yl)methyl)-1-oxo-1,3,5,5a,6,7,8,9-octahydro-2H-pyrazino[1′,2′:4,5][1,4]oxazino[2,3-e]isoindol-2-yl)piperidine-2,6-dione], for which, at ER [1], the DC50 is < 1 nM and the “ER T47D ICW Dmax (%)” value was “A (“A”: >=75%)”. In addition, at ER [2] (MCF-7 cells, 16 hrs), the “ER MCF7 ICW Dmax (%)” value is reported as “A (“A”: >=75%)” and the DC50 is < 1 nM. On ERα_LBD (GST), the negative logarithm of the IC50 (pIC50) is ≤ 8.00. At CRBN/DDB1, this compound had a pIC50 of 5.30 to 6.30.

In the case of `C[C@@H]1Cc2c(ccc3[nH]ncc23)C(c2ccc(N3CCC4(CC3)CC(CN3CCN5c6ccc7c(c6OC[C@H]5C3)CN([C@H]3CCC(=O)NC3=O)C7=O)C4)nc2)N1CC(F)(F)F` (stereo in doubt) [Compound A25, (S)-3-((R)-7-((7-(5-((6S,8R)-8-methyl-7-(2,2,2-trifluoroethyl)-6,7,8,9-tetrahydro-3H-pyrazolo[4,3-f]isoquinolin-6-yl)pyridin-2-yl)-7-azaspiro[3.5]nonan-2-yl)methyl)-1-oxo-1,3,5,5a,6,7,8,9-octahydro-2H-pyrazino[1′,2′: 4,5][1,4]oxazino[2,3-e]isoindol-2-yl)piperidine-2,6-dione], the DC50 on ER [1] was < 1 nM; on ER [2] (MCF-7 cells, 16 hrs), < 1 nM. Besides, the greatest degradation seen (Dmax) on ER [1] and on ER [2] (setting [3]) was > 75% each time. Further, at ERα_LBD (GST), the pIC50 is > 8.00.

With `C[C@@H]1Cc2c(ccc3[nH]ncc23)[C@@H](c2ccc(N3CC4(CCC(CN5CCN6c7ccc8c(c7OC[C@H]6C5)CN([C@H]5CCC(=O)NC5=O)C8=O)CC4)C3)cn2)N1CC1(F)CC1` [Compound A11, (S)-3-((R)-7-((2-(6-((6S,8R)-7-((1-fluorocyclopropyl)methyl)-8-methyl-6,7,8,9-tetrahydro-3H-pyrazolo[4,3-f]isoquinolin-6-yl)pyridin-3-yl)-2-azaspiro[3.5]nonan-7-yl)methyl)-1-oxo-1,3,5,5a,6,7,8,9-octahydro-2H-pyrazino[1′,2′: 4,5][1,4]oxazino[2,3-e]isoindol-2-yl)piperidine-2,6-dione], the half-maximal degradation concentration (DC50) was < 1 nM at ER [1] and < 1 nM at ER [2] (MCF-7 cells, 16 hrs). The maximal degradation (Dmax) at ER [1] is > 75%; at ER [2] (MCF7, MCF-7 cells, 16 hrs, read-out: ER MCF7 ICW Dmax (%)), > 75%. In addition, the negative logarithm of the IC50 (pIC50) at ERα_LBD (GST) is ≤ 8.00.

With `C[C@@H]1Cc2c(ccc3[nH]ncc23)[C@@H](c2ccc(N3CC4(CCC(CN5CCN6c7ccc8c(c7OC[C@H]6C5)CN(C5CCC(=O)NC5=O)C8=O)CC4)C3)cn2)N1CC1(F)CC1` (stereo partly drawn) [Compound A16, (S)-3-((R)-7-((2-(6-((6S,8R)-7-((1-fluorocyclopropyl)methyl)-8-methyl-6,7,8,9-tetrahydro-3H-pyrazolo[4,3-f]isoquinolin-6-yl)pyridin-3-yl)-2-azaspiro[3.5]nonan-7-yl)methyl)-1-oxo-1,3,5,5a,6,7,8,9-octahydro-2H-pyrazino[1′,2′: 4,5][1,4]oxazino[2,3-e]isoindol-2-yl)piperidine-2,6-dione], the DC50 on ER [1] was < 1 nM; at ER [2] (MCF-7 cells, 16 hrs), < 1 nM. In addition, the maximal degradation (Dmax) on ER [1] and at ER [2] (setting [3]) was > 75% throughout. Besides, at ERα_LBD (GST), the negative logarithm of the IC50 (pIC50) was > 8.00.
